Where two headings read alike, the source gives them in different places.
Columns and labels:
[1] = Serum antibiotic concentration in mice after intraperitoneal dose (microbiological assay); assay type: in vivo; conditions: single dose, detection limit 0.5 μg/ml
Experimental: The 30 minute serum concentration of vancomycin or daptomycin in 25–30 gram immunocompetent hairless mice (Charles River Laboratories, Wilmington, MA) was determined following intraperitoneal injection of 40, 50 and 60 mg/kg vancomycin or 20, 30, 40 and 50 mg/kg daptomycin, respectively. Pharmacokinetic profiles were determined by injecting 50 mg/kg vancomycin or 25 mg/kg daptomycin intraperitoneally and obtaining serum samples 30, 60, 120, 180 and 240 minutes post injection. Drug activity was measured using a microbiological assay technique. Standard curves for serum drug level determination were performed by making drug dilutions in pooled mouse serum (Innovative Research, Incorporated, Southfield, MI). The reporter bacteria for the vancomycin and daptomycin bioassays were Bacillus subtilis and Micrococcus luteus, respectively. Zones of growth inhibition were measured to the nearest millimeter. The detection limit for both drugs was 0.5 μg/ml.

S. pneumoniae Xen10 = assay: Time kill assay; assay type: cell-based, Streptococcus pneumoniae; conditions: daptomycin 1 μg/ml or vancomycin 2 μg/ml alone and with dexamethasone 100 μg/ml
Description: Figure 1 Time kill assay. […] DP, daptomycin; VN, vancomycin; DX, dexamethasone.

[2] = system: Streptococcus pneumoniae A 66.1 serotype 3 (Xen 10); assay type: in vivo, mice
Experimental: This study was approved by the Institutional Animal Care and Use Committee of the Mayo Clinic, Rochester, Minnesota. Ninety-six 25–30 gram immunocompetent hairless mice were divided into three treatment groups. Sixteen hours prior to treatment, mice were anesthetized using ketamine and xylazine (45 mg/kg and 5 mg/kg I.M., respectively) and 3 × 10^4 cfu of bacteria in a 20 μl volume were inoculated into the cisterna magna. The time of treatment was selected as the latest time point at which antimicrobial treatment could realistically lead to recovery. […] At 20 hours post infection an additional dose of vancomycin 50 mg/kg was given to the vancomycin-treated animals. Mice not receiving vancomycin at 20 hours were injected with an equal volume of saline. At 16, 20, and 24 hours post infection, 8, 40 and 48 animals, respectively were re anesthetized and cerebrospinal fluid (CSF) was collected by way of puncture from the cisterna magna (using a 28 G 1/2 needle 0.3 × 13 mm from BD Microlance). CSF white-blood cell count was determined and bacterial burden was quantified in CSF by plating serial 10-fold dilutions in sterile isotonic saline onto blood agar plates. Results were expressed as log10 cfu/ml; the detection limit was 20 cfu/ml of CSF. Following collection of CSF, animals were euthanized with a lethal dose of pentobarbital, their brains collected and placed in 10% neutral buffered formalin.
Bacterial concentrations between treatment groups at each time point were compared using the student t-test. Correlation analysis between log10 bacterial CSF titers and log10 photons/second was calculated using SPSS statistical software. For inflammation, neuronal necrosis, and apoptosis scores, statistical analysis included a nonparametric Kruskal-Wallis test followed by a Dunn's test comparing all treatment groups using a confidence level of 95%.

[3] = system: penicillin-resistant pneumococcal strains; conditions: cited from earlier work
Description: Four studies of daptomycin treatment of experimental meningitis have been reported. […] Similarly, Gerber et al. reported bactericidal activity in a rabbit model of Staphyloco ...

[4] = human, 6 mg/kg q.d. intravenously (highest FDA-approved dose); no reference given; cited from earlier work
[5] = vancomycin 50 mg/kg intraperitoneally, bioassay with Bacillus subtilis

| SMILES | serum level at 30 minutes [1, 5] [µg/mL] | serum level at 3 hours [1, 5] [µg/mL] | in vitro bactericidal activity, effect of dexamethasone (S. pneumoniae Xen10) | drop of bacterial titers four hours after a single treatment ([2]; CSF, mice, accompanied by 1 mg/kg of dexamethasone, daptomycin 25 mg/kg or vancomycin 50 mg/kg i.p.) [log10] | CSF titers at 24 hours post infection ([2]; mice, vancomycin 50 mg/kg at 16 and 20 hours or daptomycin 25 mg/kg at 16 hours, i.p., with dexamethasone 1 mg/kg every 6 hours) [log10 cfu/ml] | release of [3H]choline (marker of cell wall lysis) ([3]; compared with ceftriaxone treatment) | penetration across inflamed meninges ([3]; rabbit, in vivo) [%] | level at 4 h ([1]; hairless (immunocompetent), mouse, serum, ip, daptomycin 25 mg/kg intraperitoneally, bioassay with Micrococcus luteus) [µg/mL] | level at 0.5 h ([1]; hairless (immunocompetent), mouse, serum, ip, daptomycin 25 mg/kg intraperitoneally, bioassay with Micrococcus luteus, read-out: serum concentration at 30 minutes) [µg/mL] | serum Cmax [4] [µg/mL] | CSF titers at 24 hours post infection ([2]; mouse, in vivo) [log10 cfu/ml] | drop of bacterial titers four hours after a single treatment ([2]; mouse, in vivo) [log10] |
| --- | --- | --- | --- | --- | --- | --- | --- | --- | --- | --- | --- | --- |
| CN[C@H](CC(C)C)C(=O)N[C@H]1C(=O)N[C@@H](CC(N)=O)C(=O)N[C@H]2C(=O)N[C@H]3C(=O)N[C@H](C(=O)N[C@H](C(=O)O)c4cc(O)cc(O)c4-c4cc3ccc4O)[C@H](O)c3ccc(c(Cl)c3)Oc3cc2cc(c3O[C@@H]2O[C@H](CO)[C@@H](O)[C@H](O)[C@H]2O[C@H]2C[C@](C)(N)[C@H](O)[C@H](C)O2)Oc2ccc(cc2Cl)[C@H]1O [vancomycin] | 55 | < 0.5 | not affected | 0.43 | 3.4 |  |  |  |  |  |  |  |
| CCCCCCCCCC(=O)N[C@@H](Cc1c[nH]c2ccccc12)C(=O)N[C@H](CC(N)=O)C(=O)N[C@@H](CC(=O)O)C(=O)N[C@@H]1C(=O)NCC(=O)N[C@@H](CCCN)C(=O)N[C@@H](CC(=O)O)C(=O)N[C@H](C)C(=O)N[C@@H](CC(=O)O)C(=O)NCC(=O)N[C@H](CO)C(=O)N[C@@H]([C@H](C)CC(=O)O)C(=O)N[C@@H](CC(=O)c2ccccc2N)C(=O)O[C@@H]1C [daptomycin] |  |  | not affected |  |  | negligible | 6 | 16 | 127 | 90 to 100 | 3.9 | 1.33 |

— paper PMC2685802, “Daptomycin in experimental murine pneumococcal meningitis” (BMC Infectious Diseases, 2009)
